In EPA's CvTdb concentration-time database:

What was measured:
Rat [1] = test: concentration in plasma after dosing; settings: dosed: Fluorotelomer alcohol 8+2
Rat [2] = test: concentration in plasma after dosing; settings: dosed: Fluorotelomer alcohol 8+2, 12 mg/kg, iv, Male, F344
Rat [3] = test: concentration in brain after dosing; settings: dosed: Fluorotelomer alcohol 8+2, oral
Rat [4] = test: concentration in liver after dosing; settings: dosed: Fluorotelomer alcohol 8+2, oral
Rat [5] = test: concentration in kidney after dosing; settings: dosed: Fluorotelomer alcohol 8+2, oral

OCCC(F)(F)C(F)(F)C(F)(F)C(F)(F)C(F)(F)C(F)(F)C(F)(F)C(F)(F)F [Fluorotelomer alcohol 8+2]
concentration in plasma [ng/mL], Rat [1]
Settings	0.25 h	0.5 h	0.75 h	1 h	3 h	5 min	6 h	9 h	12 h	24 h
12 mg/kg, iv, Male, F344	1590	1260	422	625	118	3550	48.7	23.8	5.59	4.63
12 mg/kg, oral, Male, Harlan Sprague Dawley	82.2	215	348	264	84.4	2.61	37.1	11.6	4.01	1.18
24 mg/kg, oral, Male, Harlan Sprague Dawley	110	–	–	–	–	6.33	–	40.2	–	2.62
40 mg/kg, iv, Female, Harlan Sprague-Dawley	–	8470	2350	2720	–	–	–	76.6	34.6	23.2
40 mg/kg, iv, Male, F344	13000	5070	–	–	378	–	254	47	–	–

Rat [2]
Settings	concentration in plasma [ng/mL]
0.25 h	1430
24 h	10.2

Settings	concentration in brain, Rat [3] [ng/g]	concentration in kidney, Rat [5] [ng/g]	concentration in liver, Rat [4] [ng/g]
0.5 h, 24 mg/kg, Male, Harlan Sprague Dawley	4540	3380	17700
0.5 h, 24 mg/kg, Male, Harlan Sprague Dawley - this seems too small	978	1060	2190
0.5 h, 80 mg/kg, Female, Harlan Sprague Dawley	5440	2910	11600
1 h, 24 mg/kg, Male, Harlan Sprague Dawley	2450	1560	3900
1 h, 80 mg/kg, Female, Harlan Sprague Dawley	9090	6420	12500
3 h, 24 mg/kg, Male, Harlan Sprague Dawley	2300	1070	2230
3 h, 80 mg/kg, Female, Harlan Sprague Dawley	8400	3900	9320
6 h, 24 mg/kg, Male, Harlan Sprague Dawley	663	460	2050
6 h, 80 mg/kg, Female, Harlan Sprague Dawley	2060	1450	3970
12 h, 24 mg/kg, Male, Harlan Sprague Dawley	95.5	185	604
12 h, 80 mg/kg, Female, Harlan Sprague Dawley	679	373	1610
